According to US8618145B2, “Small molecular compounds capable of accelerating proliferation of stem cells and use thereof” (priority 2009, dated 2013):

Tests used:
[1] = test system: AD rat model (aggregated Aβ1-40 injected in hippocampus); test: pharmacodynamic evaluation in AD rat (Morris water maze); assay type: in vivo; details: tail vein injection, administration for 14 days, FIG. 5
Description: Establishment of AD rat model: in the experiment, stereotaxic instrument and micro-injection pump are used to inject aggregated Aβ1-40 (5 ug/ul) 2 ul (0.4 ul/min, 5 min) to the dorsal blade of the dentate gyrus in the hippocampus of rat (3.0 mm behind anterior fontanelle, open at right 2.0 mm, subdural 3.2 mm, Incisor hook plane is 2.4 mm lower than the interaural line plane), the model is established after 2 weeks. […]
Pharmacodynamic experiment (Morris water maze): the experimental apparatus is a rustless steel round pool with a height of 60 cm, and a diameter of 150 cm (both the bottom and wall of the pool are covered by black paster to facilitate the video camera for distinguishing the white rats in pool), the video camera is connected to a computer; the pool is divided into four quadrants, and a platform is placed in the middle of the first quadrant. […] The experimental rats enter water from four different positions, the video camera records the swimming paths of each experimental rats, and the experimental results are analyzed by image processing software. […] During the experiment, the time the rat taken from entering water to climbing onto the platform (i.e., escape latency) is recorded, and the rat is allowed to stay on the platform for 10 sec. […] The escape latency of the animals, times of rearing up, and spatial bias are recorded and compared.

[2] = test system: rat mesenchymal stem cells; test: rat mesenchymal stem cell proliferation, MTT; assay type: cell-based; details: α-MEM+10% fetal bovine serum, 2 days, FIG. 4
Description: (§1) Human (rat) mesenchymal stem cells (a cell line obtained according to conventional method) is prepared into a single cell suspension by using a medium (α-MEM+10% fetal bovine serum), and is seeded at 1×10^4/well on 96-well plate. The experiments are divided into medium control group; and medium+small molecular compound Ia group. After culturing for 2 days, MTT (5 mg/ml) 10 ul is added. After incubating for 4 hours, a 100 μl lysis solution (10% SDS, 0.1% NH4Cl) is added. The mixture is incubated overnight. The light absorption value is detected at 490 nm.

[3] = test system: hippocampus cells of AD rat; test: HE staining of hippocampus cells in AD rat; assay type: in vivo; details: AD rat of Example 13, dosage-dependent, FIG. 6 and FIG. 7
Description: The rats in Example 13 are perfused and their brains are taken. Rats are anesthetized with 10% chloral hydrate (0.3 ml/100 g). Heparin (200 ug/kg) is injected to the left ventricular, and the right atrial appendage is cut off. 40 ml physiological saline and then 300 ml 4% paraformaldehyde are perfused to the left ventricular to harden the brain. Brain taken: after breaking the neck, the skull is peeled to expose olfactory bulb, peeling it from olfactory bulb with a small curved scissor. After optic nerve is cut off, it is slowly peeled to naturally fall, the adhesion sites are cut off, and are placed into 4% paraformaldehyde solution overnight. It is dehydrated with gradient alcohol and is embedded in olefin, sectioned and floated.
HE staining: dewaxing with dimethylbenzene twice, each for 3 min. Hydration: hydration with descending concentration gradient alcohol: 100%→95%→90%→80%→70%. Dehydration lasts for 2˜3 mins to remove dimethylbenzene during each gradient. Water washing: ethanol is removed. It is dipped into a hematoxylin solution for 5-10 mins, and washed with tap-water. It is dipped into a dilute hydrochloric acid-ethanol solution to carry out color separation for only a few seconds. It is washed with tap-water and dipped into dilute ammonia to make the cell nucleus blue for 3-5 mins. […] It is mounted with neutral resin, and observed by […].

[4] = test system: Human neural stem cells; test: human neural stem cell proliferation, MTT; assay type: cell-based; details: DMEM/F12+10% fetal bovine serum+EGF, bFGF, 4 days, FIG. 2
Description: Human neural stem cells (provided according to conventional methods by Peking University Stem Cell Research Center) is prepared into a single cell suspension by using a medium (DMEM/F12+10% fetal bovine serum+20 ng/mIEGF, bFGF), and is seeded at 2×10^4/well on 96-well plate. The experiments are divided into medium control group (a group without adding a medicine); medium+small molecular compound Ia group (a group with a medicine added). After culturing for 4 days, MTT (5 mg/ml) 10 ul is added. After incubating for 4 hours, a 100 μl lysis solution (10% SDS, 0.1% NH4Cl) is added. The mixture is incubated overnight. The light absorption value is detected at 490 nm.
The experimental results are shown in FIG. 2, the height of the histogram represents absorbance, which is proportional to the number of cells (which has the same vertical coordinate in the MTT method, and is not explained one by one).

[5] = test system: Embryonic stem cell; test: embryonic stem cell proliferation, ATP method (CellTiter-Glo); assay type: cell-based; details: serum free medium, culturing 1 to 4 days, FIG. 1
Description: (§2) Embryonic stem cell (obtained from oosperm according to the conventional method) is cultured in serum free medium (a conventional medium, such as DMEM/F12, αMEM, 1640, etc.). The experiments are divided into control group, FGF group, neural stem cells proliferation accelerator Ia group, FGF+neural stem cells proliferation accelerator Ia group. After culturing for 1 to 4 days, the kit CellTiter-Glo®Luminescent Cell Viability Assay (Promega) is used to detect cells proliferation by ATP method. The ATP method is performed in accordance with operational steps of the kit.
Therefore, Ia accelerates the proliferation of embryonic stem cells.

[6] = test system: Human mesenchymal stem cells; test: human mesenchymal stem cell proliferation, MTT; assay type: cell-based; details: α-MEM+10% fetal bovine serum, 2 days, FIG. 3
Description: as §1

[7] = test system: Rat neural stem cells; test: rat neural stem cell proliferation, ATP method; assay type: cell-based; details: serum free medium; for proliferation rate of neural stem cells in rat: rat adult neural stem cells
Description: as §2
Rat neural stem cells are cultured in serum free medium. The experiments are divided into control group, FGF group, small molecular compound Ia group, and FGF+small molecular compound Ia group. The detection is carried out by ATP method (see the method in Example 6). Small molecular compound Ib, Ic, Id, Ie, If, Ig also conduct said experiment.

| SMILES | ability of learning and memory (water maze) [1] | rat mesenchymal stem cell proliferation [2] | degeneration of hippocampus cells (HE staining) [3] | human neural stem cell proliferation (absorbance at 490 nm) [4] | embryonic stem cell proliferation (chemiluminescence intensity) [5] | human mesenchymal stem cell proliferation [6] | proliferation rate of neural stem cells in rat [7] | effect on rat neural stem cell proliferation (in words) [7] |
| --- | --- | --- | --- | --- | --- | --- | --- | --- |
| NNC(=S)Nc1ccc(-c2nnc(S)o2)cc1 [Ia, 4-(4-(5-mercapto-1,3,4-oxadiazol-2-yl)phenyl) thiosemicarbazide] | improved ability of learning and memory | accelerates rat mesenchymal stem cell proliferation | less seriously degenerated | accelerates human neural stem cell proliferation | significantly increased | accelerates human mesenchymal stem cell proliferation | 4.2 | accelerate rat neural stem cell proliferation |
| CSc1nnc(-c2ccc(NC(=S)NN)cc2)o1 [Ib, 4-(4-(5-(methylthio)-1,3,4-oxadiazol-2-yl)phenyl) thiosemicarbazide] |  |  |  |  |  |  | 2 | accelerate rat neural stem cell proliferation |
| CNC(=S)Nc1ccc(-c2nnc(SC)o2)cc1 [Ic, 1-methyl-3-(4-(5-(methylthio)-1,3,4-oxadiazol-2-yl)phenyl)thiourea] |  |  |  |  |  |  | 1.5 | accelerate rat neural stem cell proliferation |
| NNC(=O)Nc1ccc(-c2nnc(S)o2)cc1 [Id, 4-(4-(5-mercapto-1,3,4-oxadiazol-2-yl)phenyl) semicarbazide] |  |  |  |  |  |  | 1.7 | accelerate rat neural stem cell proliferation |
| S=C(NNc1ccc(Cl)cc1)Nc1ccc(-c2nnc(S)o2)cc1 [Ie] |  |  |  |  |  |  | 2.5 | accelerate rat neural stem cell proliferation |
| COc1ccc(NNC(=S)Nc2ccc(-c3nnc(S)o3)cc2)cc1 [If] |  |  |  |  |  |  | 2.3 | accelerate rat neural stem cell proliferation |
| CNC(=S)Nc1ccc(-c2nnc(O)o2)cc1 [Ig, 1-methyl-3-(4-(5-oxo-4,5-dihydro-1,3,4-oxadiazol-2-yl)phenyl)thiourea] |  |  |  |  |  |  | 2.4 | accelerate rat neural stem cell proliferation |
